Data reported in the supplement of paper PMC4858399.

Columns and labels:
[1] = test system: Caenorhabditis elegans N2; assay: lowest effective concentration for larval growth inhibition (size below effect threshold); higher = less potent; details: exposure time 48 h
Procedure, shortened: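 Worm size was taken as per-worm extinction on the Biosort, log-transformed and turned into well means. The larvae (C. elegans N2, L1 stage, 50 per 96-well) had spent 48 h at 20°C in K-medium with killed bacteria, 1% DMSO and 0.5, 1, 5, 10, 50, 100 or 200 µM chemical. The lowest effective concentration marks the first dose where the plate-adjusted mean size drops under a cutoff and remains under it at every higher dose; the cutoff is 5.665.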

[2] = test system: Caenorhabditis elegans N2; assay: mean nematode size ln(EXT) after 48 h, plate-adjusted (DMSO control set to 6) (ln(EXT), control-adjusted); higher = larger nematodes / less growth inhibition; details: exposure time 48 h
Procedure, shortened: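 Synchronised C. elegans N2 L1 larvae were grown for 48 h at 20°C in K-medium containing killed OP50, 1% DMSO and 0.5–200 µM chemical, at 50 per well and 4–6 wells per treatment. The Biosort recorded extinction for each worm, and a growth model removed debris. Worm size was obtained by natural-logging these values and averaging them per well. For plate adjustment, the vehicle control mean was subtracted and 6 was added.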

SMILES	lowest effective concentration [1]	mean nematode size ln(EXT) (ln) ([2]; 0.5 µM)	mean nematode size ln(EXT) (ln) ([2]; 1 µM)	mean nematode size ln(EXT) (ln) ([2]; 5 µM)	mean nematode size ln(EXT) (ln) ([2]; 10 µM)	mean nematode size ln(EXT) (ln) ([2]; 50 µM)	mean nematode size ln(EXT) (ln) ([2]; 100 µM)	mean nematode size ln(EXT) (ln) ([2]; 200 µM)
CC(C)(C)OOC(=O)c1ccccc1 [tert-Butyl perbenzoate]	> 200 µM	6.05	6.11	6.1	6.03	6	6.09	5.87
CN(C)CCCN(C)CCCN(C)C	> 200 µM	5.82	5.85	5.88	5.85	5.81	5.89	5.96
CCCCCOC(=O)c1ccccc1C(=O)OCCCCC [Dipentyl phthalate]	> 200 µM	5.85	5.86	5.89	5.87	5.85	5.81	5.73
N#C[C@@H]1CC(F)(F)CN1C(=O)CNC1CC2CCC(C1)N2c1ncccn1 (stereo partly specified)	> 200 µM	5.82	5.89	5.85	6	5.95	5.78	5.85
CCOc1nc(F)cc2nc(S(=O)(=O)Nc3c(Cl)cccc3Cl)nn12 [Diclosulam]	> 200 µM	6.11	6.13	6.09	6.14	6.15	6.17	5.79
COC(=O)NS(=O)(=O)c1ccc(N)cc1 [Asulam]	> 200 µM	6.06	5.99	5.51	6.04	5.49	5.99	5.83
O=C(O)c1nc(Cl)ccc1Cl [Clopyralid]	> 200 µM	5.75	5.75	5.75	5.87	5.93	5.89	6.08
COP(N)(=O)SC (stereo unspecified) [Methamidophos]	> 200 µM	5.74	5.85	5.85	5.88	5.89	5.93	5.87
O=C(O)c1cc(/N=N/c2ccc(S(=O)(=O)Nc3ccccn3)cc2)ccc1O [Sulfasalazine]	> 200 µM	5.85	5.91	5.87	5.87	5.92	5.9	5.94
CC1=C(C)S(=O)(=O)CCS1(=O)=O [Dimethipin]	> 200 µM	5.96	5.96	5.91	5.93	5.98	6	5.93
CO[C@@H]1COCC[C@@H]1N[C@@H]1CC[C@@](C(=O)N2CCc3ncc(C(F)(F)F)cc3C2)(C(C)C)C1	> 200 µM	5.89	5.88	5.95	5.95	5.93	5.86	5.84
OCCOc1ccccc1 [Phenoxyethanol]	> 200 µM	5.77	5.98	6.04	6.07	6.15	5.99	5.97
